From US20260297136A1, “PEPTIDES WITH LIPOLYTIC, ANTI-LIPOGENIC, ANTIFIBROTIC AND ANTI-INFLAMMATORY ACTIVITY” (FUNDACIÓ HOSPITAL UNIVERSITARI VALL D'HEBRON - INSTITUT DE …, priority 2023, published 2026)

Columns and labels:
[1] = tested on: obesity and fatty liver disease mouse model; assay: Therapeutic effects in an obesity and fatty liver disease mouse model, Example 6; type: in vivo, C57BL6/J male mice
Protocol: C57BL6/J male mice were purchased and kept for quarantine and acclimatization for a period of about 7 days before initiation of every experiment. Mice were housed in clean and sterilized mice cages and maintained in a controlled environment with 22+3° C. temperature, 50+20% humidity, a light/dark cycle of 12 hours each and 15-20 fresh air changes per hour.
For Obesity and NAFLD induction, the animals were fed ad libitum, either with chow diet (150SP-10, Safe Diets) or 45% high-fat diet (TD.190179, Envigo) plus 30% fructose (F0127, Sigma Aldrich) in drinking water for 20 weeks. The therapeutic effect of a daily subcutaneous injection of GP6 (20 mg/kg/day) in this mouse model was assessed for 10 weeks, starting the treatment on week 10 of the experiment until week 20.
A group of control mice (n=10) was fed with control diet and regular drinking water and a group of mice (n=30) obesity and fatty liver disease was induced for 10 weeks. At this point, mice were randomly divided in three groups of n=10, the first group was treated with daily subcutaneous injections of vehicle (water), the second group was treated with Telmisartan (5 mg/kg/day) in the drinking water and a subcutaneous injection of vehicle, and the third group with daily subcutaneous injection of GP6 (20 mg/kg/day) during 10 weeks.
At the end of the experiment mice were sacrificed, serum samples were extracted, tissues were weighted and part was fixed in paraformaldehyde for histology studies and part immediately frozen at −80 C for mRNA and protein expression studies as well as assessment of triglycerides.
The histology studies, AST and ALT measurements, TG measurements, and the RNA analysis were performed as described in Example 4.

[2] = tested on: HepG2 cells; assay: Hepatic lipogenesis gene expression in HepG2 cells (24 h), Example 7; type: cell-based, human; conditions: 40 μg/ml, vs vehicle
Source text: FIG. 32. Effect of GP6 and modified peptides on hepatic lipogenesis in HepG2 cells. Each bar within each group represents mRNA levels of a key hepatic lipogenic enzyme, from left to right: Acetyl-CoA Carboxylase (ACC), ATP Citrate Lyase (ACLY) and Fatty Acid Synthase (FAS), and a key transcription factor regulating several lipogenic enzymes such as PPARγ (PPARγ).
Cell culture reagents were from Life Technologies Inc (Invitrogen SA, Barcelona, Spain). HepG2 hepatoblastoma cells (cat. no. HB-8065; ATCC, LGC Standards SLU, Barcelona, Spain) were maintained in Dulbecco's modified Eagle medium (DMEM) supplemented with 10% fetal bovine serum and antibiotics.
• HepG2 cells were cultured for 5 day in the absence or presence of 30 mM fructose. Cells cultured in 30 mM fructose were daily treated with vehicle, Telmisartan, Semaglutide or EDL6D. • HepG2 cells were cultured for 24 h in the absence or presence of GP6 (40 μg/ml), GP10 (40 μg/ml), GP11 (40 μg/ml), GP12 (40 μg/ml), GP13 (40 μg/ml) or SHBG (20 nM). • HepG2 cells were cultured in the absence or presence of 30 mM fructose and treated for 2 h with vehicle or GP4 (40 μg/ml), GP6 (40 μg/ml), GP7 (40 μg/ml), GP8 (40 μg/ml), GP9 (40 μg/ml), GP10 (40 μg/ml), GP11 (40 μg/ml), GP12 (40 μg/ml), GP13 (40 μg/ml) or SHBG (20 nM).
Total RNA was extracted from HepG2 and LX-2 cells using TRIzol reagent (Invitrogen SA). Reverse transcription was performed at 42° C. for 50 minutes using […] of total RNA, 200 U of Superscript II, and an oligo-dT primer and reagents provided by Invitrogen. An aliquot of the reverse transcription product was amplified in a […] reaction using SYBRGreen (Invitrogen SA) with appropriate oligonucleotide primer pairs corresponding to human SHBG, ACC, FAS, ACLY, PPARG, and 18S and mouse ACC, FAS, ACLY, PPARG, Col1A1 and 18S. Results were analyzed using the 7000 Sequence Detection System program (Applied Biosystems, Thermo Fisher Scientific, Barcelona, Spain) (Shez-Lopez et al Endocrinology 2017).

[3] = 20 mg/kg/day sc, 10 weeks, vs vehicle
[4] = 20 mg/kg/day sc, 10 weeks, blind pathologist, lipid reduction corroborated

SMILES: CC[C@@H](C)[C@@H](NC(=O)[C@H](NC(=O)CNC(=O)[C@@H](CCC(=O)O)NC(=O)[C@H]1CCCN1C(=O)[C@@H](CC(=O)O)NC(=O)[C@@H](Cc1c[nH]c2ccccc12)NC(=O)[C@H](NC(=O)[C@@H](CCCNC(=N)N)NC(=O)[C@H](NC(=O)[C@@H](CCC(=O)O)NC(=O)[C@@H](Cc1ccccc1)NC(=O)[C@@H](CO)NC(=O)[C@@H](CO)NC(=O)[C@@H](CO)NC(=O)[C@H](NC(=O)[C@@H](CCCCN)NC(=O)[C@H](N)[C@H](C)O)[C@H](C)O)C(C)C)[C@H](C)O)C(C)C)C(=O)N[C@H](Cc1ccccc1)C(=O)N[C@H](Cc1ccc(O)cc1)C(=O)O [GP6]
- AST serum levels ([1]; 20 mg/kg/day sc, 10 weeks): reduced significantly
- hepatic fibrosis (picrosirius staining) ([1]; 20 mg/kg/day sc, 10 weeks): did not showed hepatic fibrosis
- total body weight gain ([1]; 20 mg/kg/day sc, 10 weeks): reducing total body weight gain
- reduction of hepatic lipid accumulation compared with Telmisartan ([1]; 20 mg/kg/day sc, 10 weeks, vs Telmisartan 5 mg/kg/day): to a greater extend than Telmisartan treatment
- Total body weight versus control mice ([1]; 20 mg/kg/day sc, 10 weeks, vs control diet mice): not significantly heavier than control mice
- ACC mRNA levels in hepatic tissue [1, 3]: reduced the mRNA levels
- Col1A1 expression in hepatic tissue [1, 3]: reduced expression levels
- F480 mRNA levels (adipose tissue inflammation) [1, 3]: reduced expression
- F480 mRNA levels in hepatic tissue [1, 3]: reduced expression
- IL1β expression (adipose tissue inflammation) [1, 3]: reduced expression
- PPARγ mRNA levels in hepatic tissue [1, 3]: reduced the mRNA levels
- TGFβ1 expression in hepatic tissue [1, 3]: reduced expression levels
- adipose tissue fibrosis (Col1A mRNA expression) [1, 3]: reduced adipose tissue fibrosis
- heart fibrosis (Col1A1 mRNA expression) [1, 3]: reduced heart fibrosis
- hepatic expression of TNFα [1, 3]: reduced the hepatic expression
- liver triglyceride (TAG) content [1, 3]: reduced significantly
- liver weight [1, 3]: reduced significantly
- serum glucose levels [1, 3]: reduced the increase glucose levels
- hepatic lipid accumulation (histology) ([1]; 20 mg/kg/day sc, 10 weeks, vs vehicle, H&E): reduced significantly
- Brunt score [1, 4]: corroborated
- Steatosis score [1, 4]: corroborated
- Alanine transaminase (ALT) serum levels ([1]; sc, as stated in the summary for Example 6): reduction
- ACC mRNA levels [2]: reduced the mRNA levels
- ACLY mRNA levels [2]: reduced the mRNA levels
- FAS mRNA levels [2]: reduced the mRNA levels
- PPARγ mRNA levels [2]: reduced the mRNA levels
